Experiments:
[1] = oral administration, cited from earlier work
[2] = cited from earlier work
[3] = Pharmacokinetics of inhaled tacrolimus in healthy volunteers, 1 mg BID repeat dose group (Part B); format: in vivo, human
Procedure: The study is a blinded, randomized, placebo-controlled, multiple dose, dose-escalation study. Part B begins once the first three cohorts of Part A have completed and safety data has been reviewed. Twenty-four (24) healthy adult male and female (women of non-child-bearing potential only) subjects were enrolled. Eight (8) subjects were assigned to each of three dose levels (1.0 mg BID, 0.5 mg BID, or QD dose of either 1.0, 1.5, or 2.0mg, as determined by the SMC at the conclusion of Cohort 2 and after examining the safety and TDM data from that cohort) with six (6) subjects per cohort receiving tacrolimus inhalation and two (2) subjects receiving placebo.
Screening of subjects occurred within 28 days prior to the first dose administered. Study subjects were randomized to receive either a placebo or tacrolimus inhalation powder by inhalation. The subject assignment were blinded to the investigator, study coordinators and study subjects. Subjects were automatically replaced if they discontinue the study prior to dosing. On Day 1, subjects in each cohort begins receiving tacrolimus or placebo administered twice a day (every 12 hours) for Cohorts 1 and 2, and tacrolimus or placebo administered once per day (every 24 hours) for Cohort 3,through the Plastiape® inhaler. Blood samples and safety measurements were performed over 1 week as scheduled. […]
PK parameters for plasma tacrolimus are calculated as follows, as appropriate: AUC0-24: The area under the concentration-time curve, from time 0 to the 24-hour time point, as calculated by the linear trapezoidal method. If the 24-hour plasma concentration is missing, below the limit of quantification or not reportable, then this parameter will not be calculated. AUC0-t: The area under the concentration-time curve, from time 0 to the last observed non-zero concentration, as calculated by the linear trapezoidal method. […] AUC0-inf is calculated as the sum of AUC0-t plus the ratio of the last measurable plasma concentration to the elimination rate constant. […] CL/F Apparent total body clearance after oral administration, calculated as Dose/AUC0-inf. […] Kel: Apparent first-order terminal elimination rate constant calculated from a semi-log plot of the plasma concentration versus time curve. The parameter will be calculated by linear least-squares regression analysis using the maximum number of points in the terminal log-linear phase (e.g., three or more non-zero plasma concentrations). t1/2: Apparent first-order terminal elimination half-life are calculated as 0.693/Kel. Vz/F: Apparent volume of distribution during the terminal elimination phase after oral administration, calculated as […]. […]

[4] = inhalation 1 mg BID, healthy volunteers

**Q.** What does the source list for `C=CC[C@@H]1/C=C(\C)C[C@H](C)C[C@H](OC)[C@H]2O[C@@](O)(C(=O)C(=O)N3CCCC[C@H]3C(=O)O[C@H](/C(C)=C/[C@@H]3CC[C@@H](O)[C@H](OC)C3)[C@H](C)[C@@H](O)CC1=O)[C@H](C)C[C@@H]2OC` [tacrolimus, (1R,9S,12S,13R,14S,17R,18E,21S,23S,24R,25S,27R)-1,14-dihydroxy-12-[(E)-1-[(1R,3R,4R)-4-hydroxy-3-methoxycyclohexyl]prop-1-en-2-yl]-23 ,25-dimethoxy-13,19,21,27-tetramethyl-17-prop-2-enyl-11,28-dioxa-4-azatricyclo [22.3.1.0^4.8]octacos-18-ene-2,3,10,16-tetrone]?
**A.** absorption ([1]; Prograf label): < 25%; variability of absorption (%CV range) ([1]; depending on the study): 28-58%; solubility in water [2]: practically insoluble in water; tacrolimus plasma exposure, actual arithmetic mean ([3]; inhalation 1 mg BID repeat dose, healthy volunteers, preliminary): 45 ng/mL; actual trough values at 12 hours post dose compared with simulated exposure ([3]; inhalation 1 mg BID, Day 1 and Day 7): closer to the upper 90% confidence interval for simulated exposure; Cmin (trough) concentrations at 12 h compared with oral PK model [3, 4]: slightly higher than predicted; observed Cmax compared with oral PK model [3, 4]: lower than predicted

Reference: patent publication US20220362222A1, “ONCE DAILY FORMULATIONS OF TACROLIMUS” (TFF Pharmaceuticals, Inc., priority 2021, published 2022)
